Measured values taken from the NIST ThermoML archive (doi:10.1016/j.tca.2017.10.003).
± gives the expanded uncertainty stated by the source.

How the values were obtained:
[1] = Molar enthalpy of transition or fusion; details: DSC
[2] = Crystal; DTA

Molar enthalpy of transition or fusion ([1]; Crystal) [kcal/mol] | Normal melting temperature [2] [°C] | Molar enthalpy of transition or fusion ([1]; Crystal 2) [kcal/mol] | Compound
16.6 ± 1.05 | 21.00 ± 6 |  | CCCCCCCCCCCCOC(=O)OCCCCCCCCCCCC [didodecyl carbonate]
12.3 ± 0.765 | 36.00 ± 5 |  | CCCCCCCCCCCCCCO [1-tetradecanol]
7.79 ± 0.502 | 3.00 ± 5 |  | CCCCCCCCCCO [decan-1-ol]
11.9 ± 0.741 | -1.00 ± 6 |  | CCCCCCCCCCOC(=O)OCCCCCCCCCC [didecyl carbonate]
8.41 ± 0.502 | -1.00 ± 5 |  | CCCCCCCC/C=C\CCCCCCCCO [(Z)-9-octadecen-1-ol]
8.33 ± 0.526 | 23.00 ± 5 |  | CCCCCCCCCCCCO [dodecan-1-ol]
 | 48.00 ± 5 | 13.1 ± 0.813 | CCCCCCCCCCCCCCCCO [1-hexadecanol]
24.3 ± 1.48 | 50.00 ± 6 |  | CCCCCCCCCCCCCCCCCCOC(=O)OCCCCCCCCCCCCCCCCCC [dioctadecyl carbonate]
16.2 ± 1.03 | 54.00 ± 5 |  | CCCCCCCCCCCCCCCCCCO [1-octadecanol]
13.5 ± 0.813 | -4.00 ± 6 |  | CCCCCCCC/C=C\CCCCCCCCOC(=O)OCCCCCCCC/C=C\CCCCCCCC [dioleyl carbonate]
23.7 ± 1.46 | 47.00 ± 6 |  | CCCCCCCCCCCCCCCCOC(=O)OCCCCCCCCCCCCCCCC [dihexadecyl carbonate]
22.6 ± 1.41 | 35.00 ± 6 |  | CCCCCCCCCCCCCCOC(=O)OCCCCCCCCCCCCCC [ditetradecyl carbonate]
